Like-named read-outs stand apart in the source and are kept apart here.
Experiments:
[1] = target: B-Raf (Homo sapiens (Human), UniProt P15056); experiment: Raf kinase inhibitory activity (Raf/MEK1/MAPK2 cascade, MBP phosphorylation, 32P); format: biochemical
Experimental: (§1) In order to examine the inhibitory activities of the compounds of the present invention against Raf kinases (B-Raf, C-Raf, B-Raf^V600E), the following experiment was performed.
(§2) (1) Consecutive Signal Transduction Reaction
(§3) To a centrifugation tube, 20 μl of a dilution solvent (20 mM MOPS, pH 7.2, 25 mM (3-glycerol phosphate, 5 mM EGTA, 1 mM sodium orthovanadate, 1 mM dithiothreitol) and 20 μl of a Mg/ATP mixture (500 μM ATP and 75 mM magnesium chloride) were added. Then, each of the derivative compounds of formula 1 was added. As a control, 1 ng of activated raf, 0.4 ng of inactivated MEK1 and 1 μg of inactivated MAPK2 were added without adding Example compounds. The solutions in the tube were concentrated at the bottom of the tube by centrifugation, and then allowed to react at 30° C. for 30 minutes, and 4 μl of the mixture solution was taken and used in the next experimental step.
(§4) (2) Phosphorylation of Substrate Protein MBP by MAPK2
(§5) To 4 μl of the mixture solution taken in (1), 10 μl of a dilution solvent, 20 μg of MBP as a substrate, and 10 μl of diluted [γ-32P]ATP (1 μCi/μL) were added. The solutions in the tube were concentrated at the bottom of the tube by centrifugation, and then allowed to react at 30° C. for 30 minutes. 25 μl of the reaction solution was carefully placed on the center of 2 cm×2 cm P81 filter paper for 30 seconds. Next, the filter paper was washed three times with 0.75% phosphoric acid solution for 10 minutes each time and washed once with acetone for 5 minutes. Next, the filter paper was transferred into a scintillation vial, and 5 ml of a scintillation cocktail was added thereto. Raf activity inhibition rate (IC50) was measured by reading the radioactivity with a scintillation counter in comparison with the control.

[2] = target: C-Raf (Homo sapiens (Human), UniProt P04049); experiment: as above; format: biochemical
Chain of C-Raf (P04049 whole entry): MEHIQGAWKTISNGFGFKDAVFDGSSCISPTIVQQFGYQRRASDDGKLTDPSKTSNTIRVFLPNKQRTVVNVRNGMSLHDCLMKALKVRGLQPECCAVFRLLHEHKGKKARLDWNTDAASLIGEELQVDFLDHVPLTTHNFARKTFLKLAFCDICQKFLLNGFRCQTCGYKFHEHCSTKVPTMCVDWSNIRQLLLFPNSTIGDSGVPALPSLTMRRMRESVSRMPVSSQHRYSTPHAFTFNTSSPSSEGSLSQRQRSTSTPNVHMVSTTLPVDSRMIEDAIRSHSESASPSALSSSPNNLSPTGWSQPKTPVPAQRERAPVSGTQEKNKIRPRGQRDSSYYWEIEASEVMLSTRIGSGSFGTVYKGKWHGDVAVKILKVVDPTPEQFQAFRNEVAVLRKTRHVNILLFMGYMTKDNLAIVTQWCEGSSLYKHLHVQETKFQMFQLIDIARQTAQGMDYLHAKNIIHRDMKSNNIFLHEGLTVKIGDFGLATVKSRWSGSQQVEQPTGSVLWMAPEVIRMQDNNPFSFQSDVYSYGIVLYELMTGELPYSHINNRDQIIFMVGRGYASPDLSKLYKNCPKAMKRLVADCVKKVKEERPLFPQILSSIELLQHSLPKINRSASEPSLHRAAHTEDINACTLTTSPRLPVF
Experimental: as §1, §2, §3, §4, §5

[3] = target: B-Raf V600E (Homo sapiens (Human), UniProt P15056, V600E); experiment: as above; format: biochemical
Chain of B-Raf V600E (P15056 whole entry V600E): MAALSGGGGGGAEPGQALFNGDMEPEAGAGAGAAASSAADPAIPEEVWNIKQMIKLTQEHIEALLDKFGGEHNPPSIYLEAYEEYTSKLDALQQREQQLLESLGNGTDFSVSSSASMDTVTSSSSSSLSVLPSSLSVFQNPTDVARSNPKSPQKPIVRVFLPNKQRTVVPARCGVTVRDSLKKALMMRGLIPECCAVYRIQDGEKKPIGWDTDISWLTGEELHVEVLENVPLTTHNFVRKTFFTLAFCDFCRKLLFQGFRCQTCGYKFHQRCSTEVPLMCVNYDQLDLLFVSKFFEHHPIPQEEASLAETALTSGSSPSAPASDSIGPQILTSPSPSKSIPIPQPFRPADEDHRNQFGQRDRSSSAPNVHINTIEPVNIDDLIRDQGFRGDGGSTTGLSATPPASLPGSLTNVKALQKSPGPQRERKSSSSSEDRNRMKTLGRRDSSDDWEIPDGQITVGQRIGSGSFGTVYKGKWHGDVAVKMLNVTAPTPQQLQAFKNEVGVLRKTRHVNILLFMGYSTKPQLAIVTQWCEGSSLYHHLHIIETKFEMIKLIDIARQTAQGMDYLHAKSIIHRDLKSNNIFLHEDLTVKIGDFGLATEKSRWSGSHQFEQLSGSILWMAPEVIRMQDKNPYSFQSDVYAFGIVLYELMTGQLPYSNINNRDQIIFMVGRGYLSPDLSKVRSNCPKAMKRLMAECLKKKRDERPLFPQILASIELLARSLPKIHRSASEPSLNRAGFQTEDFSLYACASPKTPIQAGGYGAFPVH
Experimental: as §1, §2, §3, §4, §5

[4] = tested on: SW620 KRAS G12V (colon); experiment: MTT assay; format: cell-based; conditions: Homo sapiens, SW-620, 72 h; Table 5; 3 days incubation; read-out: MTT assay IC50 KRAS mutant (Colon) SW620 KRAS G12V
Procedure, shortened: (§6)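 Cells were seeded at line-dependent density and stabilised overnight at 37 °C, then exposed to compounds for 3 days at 37 °C. MTT was then added for 2 h and the formazan dissolved in DMSO.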

[5] = tested on: HCT-116 KRAS G13D (colon); experiment: MTT assay; format: cell-based; conditions: Homo sapiens, HCT-116, 72 h; Table 5; 3 days incubation; read-out: MTT assay IC50 KRAS mutant (Colon) HCT-116 KRAS G13D
Procedure, shortened: as §6

[6] = tested on: SK-MEL2 NRAS Q61R (melanoma); experiment: MTT assay; format: cell-based; conditions: Homo sapiens, SK-MEL-2, 72 h; Table 5; 3 days incubation
Procedure, shortened: as §6

[7] = tested on: WiDR BRAF V600E (colon); experiment: MTT assay; format: cell-based; conditions: Homo sapiens, 72 h, Table 5, 3 days incubation, read-out: MTT assay IC50 BRAF mutant (Colon) WiDR BRAF V600E
Procedure, shortened: as §6

[8] = tested on: HUVEC (VEGF); experiment: MTT assay; format: cell-based; conditions: Homo sapiens, 72 h, Table 5, 3 days incubation
Procedure, shortened: as §6

[9] = tested on: LS513 KRAS G12V (colon); experiment: MTT assay; format: cell-based; conditions: Homo sapiens, LS-513, 72 h, 3 days incubation, read-out: MTT assay IC50 KRAS mutant (Colon) LS513 KRAS G12V
Procedure, shortened: as §6

[10] = tested on: A-375P BRAF V600E (melanoma); experiment: MTT assay; format: cell-based; conditions: A375P, 72 h; Table 5; 3 days incubation
Procedure, shortened: as §6

[11] = tested on: LS513 human colorectal cancer cell line xenograft; experiment: Antitumor effect on human colorectal cancer LS513 cell line xenograft; format: in vivo, Balb/c nu/nu nude mice; conditions: oral, twice a day, 14 days
Source text: In this experiment, 5 to 6-week-old female Balb/c nu/nu nude mice (weighed 18 to 20 g) were used. The mice were provided from Nara Biotech Co., Ltd. During the experiment, all the animals were housed on a mouse constant temperature/constant humidity shelf (Individually Ventilated Cages System, LAB & BIO).
Each cage (37.2 cm length×19.2 cm width×13.1 cm height) was sterilized with a sterilizer, and eight mice were received in each cage. The mice were maintained in a hygienic environment controlled to a temperature of 20 to 24° C. and a humidity of 40 to 70% with a 12-hr light/12-hr dark cycle. The mice were allowed to access sterilized feed and drinking water ad libitum. The care and treatment of these animals were carried out according to the Laboratory Animal Care Guidelines of Samjin Pharmaceutical Co., Ltd.
The mice were acclimated to the housing facility for 1 week, and then 0.1 mL of a cell suspension containing 1×10^7 cells was injected subcutaneously into the right flank of each mouse. After cell transplantation, the volume of the formed tumor was measured, and mice with formed tumors having a volume of 150 mm^3 or more were randomly divided into groups (each consisting of 7 to 8 animals) for treatment with the test compounds and a control. […] Administration of the drugs was continued for 14 days. […] At 3-day intervals from the starting day of the administration, the long axis and short axis of the tumor were measured with digital vernier calipers, and the tumor volume was calculated using the following equation and recorded: Tumor volume (TV)=Long axis×short axis^2/2.
Tumor growth inhibition for absolute tumor volume was calculated using the following equation. In the following equation, V0 is the tumor volume on the first day of drug administration (day 0), and Vt is the tumor volume after last drug administration.

[12] = target: VEGFR-2 tyrosine kinase (KDR) (Homo sapiens (Human), UniProt P35968); experiment: VEGFR-2 tyrosine kinase inhibitory activity (ADP-Glo kinase assay); format: biochemical; conditions: KDR 50 ng
Chain of VEGFR-2 tyrosine kinase (KDR) (P35968 20-1356): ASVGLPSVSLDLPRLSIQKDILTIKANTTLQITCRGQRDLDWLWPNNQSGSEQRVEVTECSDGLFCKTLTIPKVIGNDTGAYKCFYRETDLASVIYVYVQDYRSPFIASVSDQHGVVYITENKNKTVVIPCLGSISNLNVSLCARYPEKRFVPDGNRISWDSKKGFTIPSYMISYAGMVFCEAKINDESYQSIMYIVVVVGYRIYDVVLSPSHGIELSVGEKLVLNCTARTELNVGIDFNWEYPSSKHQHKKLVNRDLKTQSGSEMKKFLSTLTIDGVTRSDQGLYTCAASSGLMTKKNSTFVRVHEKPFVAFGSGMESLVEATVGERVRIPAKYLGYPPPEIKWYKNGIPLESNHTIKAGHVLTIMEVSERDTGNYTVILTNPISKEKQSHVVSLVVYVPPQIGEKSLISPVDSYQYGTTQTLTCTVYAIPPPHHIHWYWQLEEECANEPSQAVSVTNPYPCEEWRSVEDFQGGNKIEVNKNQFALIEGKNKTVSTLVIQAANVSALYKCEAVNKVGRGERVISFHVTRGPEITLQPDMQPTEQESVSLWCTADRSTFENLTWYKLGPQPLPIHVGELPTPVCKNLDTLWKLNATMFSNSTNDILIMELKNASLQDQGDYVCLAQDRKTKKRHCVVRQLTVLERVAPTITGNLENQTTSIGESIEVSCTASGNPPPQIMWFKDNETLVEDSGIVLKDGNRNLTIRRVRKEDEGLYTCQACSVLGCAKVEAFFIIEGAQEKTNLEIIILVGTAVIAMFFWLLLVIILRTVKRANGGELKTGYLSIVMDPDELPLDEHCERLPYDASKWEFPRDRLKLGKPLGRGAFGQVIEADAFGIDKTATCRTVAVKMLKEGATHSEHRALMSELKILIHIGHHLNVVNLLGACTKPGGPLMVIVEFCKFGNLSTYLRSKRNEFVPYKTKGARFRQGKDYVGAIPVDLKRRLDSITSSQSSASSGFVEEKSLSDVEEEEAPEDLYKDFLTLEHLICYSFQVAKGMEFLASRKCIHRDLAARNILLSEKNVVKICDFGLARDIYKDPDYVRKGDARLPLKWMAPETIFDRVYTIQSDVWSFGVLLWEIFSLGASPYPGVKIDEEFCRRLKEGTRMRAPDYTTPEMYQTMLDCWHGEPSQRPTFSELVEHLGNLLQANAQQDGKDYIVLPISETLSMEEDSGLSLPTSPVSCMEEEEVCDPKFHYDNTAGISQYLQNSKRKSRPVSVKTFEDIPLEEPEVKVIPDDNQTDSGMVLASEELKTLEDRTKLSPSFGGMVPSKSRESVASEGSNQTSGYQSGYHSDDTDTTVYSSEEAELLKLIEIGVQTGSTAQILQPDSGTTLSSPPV
Experimental: The inhibitory activities of the compounds of the present invention against VEGFR-2 tyrosine kinase were analyzed using ADP-Glo™ kinase assay kit commercially available from Promega. In the principle of the analysis, kinase, a substrate and ATP are reacted with one another, and then ADP-Glo™ solution is added thereto. The ATP is removed while leaving the produced ADP, and the remaining ADP is converted to ATP by use of a kinase detection reagent, and the ATP is reacted with a luciferin substrate, and the emitted luminescence is measured.
Reaction time: 30 min (30° C.)/40 min/30 min;

Chain of B-Raf (P15056 whole entry): as the sequence (P15056 whole entry V600E) above, with E600V counted along it

Structure (SMILES) | IC50 [1] | IC50 [2] | IC50 [3] | IC50 [4] | IC50 [5] | IC50 [6] | IC50 [7] | IC50 [8] | IC50 ([9]; Table 4) | IC50 ([9]; Table 5) | IC50 [10] | antitumor effect (tumor growth inhibition) compared to the control group ([11]; 30 mg/kg) | antitumor effect (tumor growth inhibition) compared to the control group ([11]; 60 mg/kg) | antitumor effect (tumor growth inhibition) compared to the vehicle control ([11]; 60 mg/kg or 30 mg/kg (dose not specified per compound)) | IC50 [12]
CC(C)(C#N)c1cccc(C(=O)Nc2ccc(F)c(Nc3ncccc3-c3ncnc4[nH]cnc34)c2F)c1 [Example 9, N-(3-(3-(9H-purin-6-yl)pyridin-2-ylamino)-2,4-difluorophenyl)-3-(2-cyanopropan-2-yl)benzamide] | 0.002 µM | 0.0006 µM | 0.0002 µM | 0.643 µM | 0.075 µM | 0.106 µM | 0.058 µM | 0.044 µM | 0.656 µM | 0.138 µM | 0.04 µM | – | – | – | –
CC(C)(C#N)c1cccc(C(=O)Nc2cc(Nc3ncccc3-c3ncnc4[nH]cnc34)ccc2F)c1 [Example 21, N-(5-(3-(9H-purin-6-yl)pyridin-2-ylamino)-2-fluorophenyl)-3-(2-cyanopropan-2-yl)benzamide] | 0.021 µM | 0.01 µM | 0.01 µM | 0.249 µM | 0.063 µM | 0.129 µM | 0.028 µM | 0.04 µM | 0.333 µM | 0.16 µM | 0.024 µM | about 66.7% | 90.3% | – | –
CC(C)(C#N)c1cccc(C(=O)Nc2cccc(Nc3ncccc3-c3ncnc4[nH]cnc34)c2)c1 [Example 23, N-(3-(3-(9H-purin-6-yl)pyridin-2-ylamino)phenyl)-3-(2-cyanopropan-2-yl)benzamide] | 0.017 µM | 0.008 µM | 0.007 µM | 0.321 µM | 0.05 µM | 0.058 µM | 0.062 µM | 0.028 µM | 0.687 µM | 0.095 µM | 0.012 µM | – | – | – | –
O=C(Nc1cc(Nc2ncccc2-c2ncnc3[nH]cnc23)ccc1F)c1cccc(C(F)(F)F)c1 [Example 30, N-(5-(3-(9H-Purin-6-Yl)Pyridin-2-Ylamino)-2-Fluorophenyl)-3-(Trifluoromethyl)Benzamide] | 0.0027 µM | 0.0007 µM | 0.0052 µM | 0.864 µM | 0.145 µM | 0.122 µM | 0.636 µM | 0.013 µM | 0.143 µM | 0.079 µM | 0.246 µM | 76.9% | 88.7% | – | –
O=C(Nc1cc(Nc2ncccc2-c2ncnc3[nH]cnc23)ccc1F)c1cc(F)cc(C(F)(F)F)c1 [Example 36, N-(5-(3-(9H-Purin-6-Yl)Pyridin-2-Ylamino)-2-Fluorophenyl)-3-Fluoro-5-(Trifluoromethyl)Benzamide] | 0.071 µM | 0.041 µM | 0.03 µM | 0.675 µM | 0.117 µM | 0.388 µM | 0.644 µM | 0.015 µM | 0.25 µM | 0.126 µM | 0.271 µM | – | – | 78.5% | –
COc1ccc(C(=O)Nc2ccc(F)c(Nc3ncccc3-c3ncnc4[nH]cnc34)c2F)cc1 [Example 53, N-(3-(3-(9H-Purin-6-Yl)Pyridin-2-Ylamino)-2,4-Difluorophenyl)-4-Methoxybenzamide] | 0.014 µM | 0.007 µM | 0.006 µM | 0.18 µM | 0.017 µM | 0.035 µM | 0.391 µM | 0.0058 µM | > 10 µM | 0.029 µM | 0.004 µM | – | – | – | –
Cc1ccc(NC(=O)c2cccc(C(F)(F)F)c2)cc1Nc1ncccc1-c1ncnc2[nH]cnc12 [Example 71, N-4-Methyl-5-[3-(9H-Purin-6-Yl)Pyridin-2-Ylamino)Phenyl-3-Trifluoromethylbenzamide] | – | – | – | – | – | – | – | – | 0.565 µM | – | – | – | – | – | 1.6 µM

— patent US10844062B2, “Pyridine derivative inhibiting RAF kinase and vascular endothelial growth factor receptor, method for preparing same, pharmaceutical composition containing same, and use thereof” (SAMJIN PHARMACEUTICAL CO., LTD., priority 2016, dated 2020)
